Test results: patent US20150293086A1, “LATERAL FLOW IMMUNOASSAY” (ABREOS BIOSCIENCES, INC., priority 2014, published 2015)

System: rituximab binding mimetope peptide
Experiment: Peptide based ELISA: biotinylated mimetope peptides on streptavidin/neutravidin plates capture the antibody
Conditions: biotinylated peptide on coated plate, peroxidase labeled secondary anti-Fc antibody
Protocol: FIG. 2 (A) illustrates one embodiment of the lateral flow assay validating that rituximab binding mimetope peptide function in immunoassays and competes with the native antigen (CD20). FIG. 2 (A) is a standard curve for rituximab by peptide based ELISA. Biotinylated peptides are bound onto neutravidin coated ELISA plates. Rituximab is diluted in TBST. […] The solid line indicates the mean of the buffer control and the dashed line represents the mean +10 times the SD of the buffer control.
To confirm that a synthetic peptide captures the antibody, ELISAs were performed. Peptides biotinylated at the C-terminus were coated onto streptavidin coated plates and then incubated with a dilution serious of antibody. Binding was detected via a peroxidase labeled secondary anti-Fc antibody. Specificity was confirmed by lack of signal from either total Ig or using a different antibody. […] The antibody was fluorescently labeled and the cell staining evaluated with or without a molar excess of the presumed mimetope as well as control peptides. […]
FIG. 2 illustrates one embodiment of the lateral flow assay validating that rituximab binding mimetope peptide function in immunoassays and competes with the native antigen (CD20). […] Fluorescently labeled rituximab was incubated with primary CLL cells and evaluated by flow cytometry (solid line). […]

## rituximab: monoclonal antibody; native antigen CD20
  sensitivity of peptide ELISA for the antibody: 4 µg/mL
